From US10640497B2, “Microbiocidal oxadiazole derivatives” (SYNGENTA PARTICIPATIONS AG, priority 2015, dated 2020)

How the values were obtained:
[1] = system: Glomerella lagenarium (Colletotrichum lagenarium); assay: Fungicidal activity against Glomerella lagenarium (Colletotrichum lagenarium), liquid culture, cucumber, preventative (anthracnose); type: cell-based; conditions: Colletotrichum orbiculare, liquid culture (PDB), growth inhibition measured photometrically 3-4 days after application, compared to untreated control
Method: Mycelia fragments or conidia suspensions of a fungus, prepared either freshly from liquid cultures of the fungus or from cryogenic storage, are directly mixed into nutrient broth. DMSO solutions of the test compound (max. 10 mg/ml) is diluted with 0.025% Tween20 by a factor of 50 and 10 μl of this solution is pipetted into a microtiter plate (96-well format). The nutrient broth containing the fungal spores/mycelia fragments is then added to give an end concentration of the tested compound. The test plates are incubated in the dark at 24° C. and 96% relative humidity. The inhibition of fungal growth is determined photometrically after 2 to 7 days, depending on the pathosystem, and percent antifungal activity relative to the untreated check is calculated. Conidia of the fungus from cryogenic storage are directly mixed into nutrient broth (PDB potato dextrose broth). After placing a (DMSO) solution of test compound into a microtiter plate (96-well format), the nutrient broth containing the fungal spores is added. The test plates are incubated at 24° C. and the inhibition of growth is measured photometrically 3-4 days after application.

[2] = system: Puccinia recondita f. sp. tritici; assay: Fungicidal activity against Puccinia recondita f. sp. tritici, wheat, leaf disc preventative (brown rust); type: in vivo; conditions: foliar, wheat leaf segments, preventative (inoculated 1 day after application), 7-9 days after application, compared to untreated control
Method: (§1) Leaf disks or leaf segments of various plant species are cut from plants grown in a greenhouse. The cut leaf disks or segments are placed in multiwell plates (24-well format) onto water agar. The leaf disks are sprayed with a test solution before (preventative) or after (curative) inoculation. Compounds to be tested are prepared as DMSO solutions (max. 10 mg/ml) which are diluted to the appropriate concentration with 0.025% Tween20 just before spraying. The inoculated leaf disks or segments are incubated under defined conditions (temperature, relative humidity, light, etc.) according to the respective test system. A single evaluation of disease level is carried out 3 to 14 days after inoculation, depending on the pathosystem. Percent disease control relative to the untreated check leaf disks or segments is then calculated. Wheat leaf segments cv. Kanzler are placed on agar in multiwell plates (24-well format) and sprayed with the formulated test compound diluted in water. The leaf segments are inoculated with a spore suspension of the fungus 1 day after application. The inoculated leaf segments are incubated at 19° C. and 75% rh under a light regime of 12 h light/12 h darkness in a climate cabinet and the activity of a compound is assessed as percent disease control compared to untreated when an appropriate level of disease damage appears in untreated check leaf segments (7-9 days after application).

[3] = system: Phakopsora pachyrhizi; assay: Fungicidal activity against Phakopsora pachyrhizi, soybean, leaf disc preventative (Asian soybean rust); type: in vivo; conditions: foliar, 288 h, 12-14 days after application, compared to untreated control
Method: Leaf disks or leaf segments of various plant species are cut from plants grown in a greenhouse. The cut leaf disks or segments are placed in multiwell plates (24-well format) onto water agar. The leaf disks are sprayed with a test solution before (preventative) or after (curative) inoculation. Compounds to be tested are prepared as DMSO solutions (max. 10 mg/ml) which are diluted to the appropriate concentration with 0.025% Tween20 just before spraying. The inoculated leaf disks or segments are incubated under defined conditions (temperature, relative humidity, light, etc.) according to the respective test system. A single evaluation of disease level is carried out 3 to 14 days after inoculation, depending on the pathosystem. Percent disease control relative to the untreated check leaf disks or segments is then calculated. Soybean leaf disks are placed on water agar in multiwell plates (24-well format) and sprayed with the formulated test compound diluted in water. One day after application leaf discs are inoculated by spraying a spore suspension on the lower leaf surface. After an incubation period in a climate cabinet of 24-36 hours in darkness at 20° C. and 75% rh leaf disc are kept at 20° C. with 12 h light/day and 75% rh. The activity of a compound is assessed as percent disease control compared to untreated when an appropriate level of disease damage appears in untreated check leaf disks (12-14 days after application).

[4] = system: Puccinia recondita f. sp. tritici; assay: Fungicidal activity against Puccinia recondita f. sp. tritici, wheat, leaf disc curative (brown rust); type: in vivo; conditions: foliar, 144 h, wheat leaf segments, curative (applied 1 day after inoculation), 6-8 days after application, compared to untreated control
Method: as §1, with “plates (24-well format). The leaf” for “plates (24-well format) and sprayed with the formulated test compound diluted in water. The leaf”, “of the fungus. Plates are stored in darkness at 19° C. and 75% rh. The formulated test compound diluted in water is applied 1 day” for “of the fungus 1 day”, “day after inoculation. The leaf” for “day after application. The inoculated”, “inoculation. The leaf segments” for “application. The inoculated leaf segments”, “leaf segments (6-8 days after” for “leaf segments (7-9 days after”

CC1CCCN(Cc2ccc(-c3noc(C(F)(F)F)n3)cc2)C1=O (stereo not drawn) [Compound A-10, 3-methyl-1-[[4-[5-(trifluoromethyl)-1,2,4-oxadiazol-3-yl]phenyl]methyl]piperidin-2-one]
≥ 80%: inhibition of growth at 20 ppm [1] | pest or weed control at 200 ppm [2] | pest or weed control at 200 ppm [3] | pest or weed control at 200 ppm [4]

CC1(C)CC(=O)N(Cc2ccc(-c3noc(C(F)(F)F)n3)cc2)C(=O)C1 [Compound A-11, 4,4-dimethyl-1-[[4-[5-(trifluoromethyl)-1,2,4-oxadiazol-3-yl]phenyl]methyl]piperidine-2,6-dione]
≥ 80%: inhibition of growth at 20 ppm [1] | pest or weed control at 200 ppm [2] | pest or weed control at 200 ppm [3] | pest or weed control at 200 ppm [4]

O=C1CCCCN1Cc1ccc(-c2noc(C(F)(F)F)n2)cn1 [Compound A-12, 1-[[5-[5-(trifluoromethyl)-1,2,4-oxadiazol-3-yl]-2-pyridyl]methyl]piperidin-2-one]
≥ 80%: inhibition of growth at 20 ppm [1] | pest or weed control at 200 ppm [2] | pest or weed control at 200 ppm [3] | pest or weed control at 200 ppm [4]

CC1CCC(=O)N1Cc1ccc(-c2noc(C(F)(F)F)n2)cc1 (stereo not drawn) [Compound A-13, 5-methyl-1-[[4-[5-(trifluoromethyl)-1,2,4-oxadiazol-3-yl]phenyl]methyl]pyrrolidin-2-one]
≥ 80%: inhibition of growth at 20 ppm [1] | pest or weed control at 200 ppm [2] | pest or weed control at 200 ppm [3] | pest or weed control at 200 ppm [4]

CC1CCCC(=O)N1Cc1ccc(-c2noc(C(F)(F)F)n2)cc1 (stereo not drawn) [Compound A-14, 6-methyl-1-[[4-[5-(trifluoromethyl)-1,2,4-oxadiazol-3-yl]phenyl]methyl]piperidin-2-one]
≥ 80%: inhibition of growth at 20 ppm [1] | pest or weed control at 200 ppm [2] | pest or weed control at 200 ppm [3] | pest or weed control at 200 ppm [4]

O=C1C2CCC(CC2)N1Cc1ccc(-c2noc(C(F)(F)F)n2)cc1 [Compound A-15, 3-[[4-[5-(trifluoromethyl)-1,2,4-oxadiazol-3-yl]phenyl]methyl]-3-azabicyclo[2.2.2]octan-2-one]
≥ 80%: inhibition of growth at 20 ppm [1] | pest or weed control at 200 ppm [2] | pest or weed control at 200 ppm [3] | pest or weed control at 200 ppm [4]

CC1(C)CCCN(Cc2ccc(-c3noc(C(F)(F)F)n3)cc2)C1=O [Compound A-16, 3,3-dimethyl-1-[[4-[5-(trifluoromethyl)-1,2,4-oxadiazol-3-yl]phenyl]methyl]piperidin-2-one]
≥ 80%: inhibition of growth at 20 ppm [1] | pest or weed control at 200 ppm [2] | pest or weed control at 200 ppm [3] | pest or weed control at 200 ppm [4]

CC1CCN(Cc2ccc(-c3noc(C(F)(F)F)n3)cc2)C(=O)C1 (stereo not drawn) [Compound A-17, 4-methyl-1-[[4-[5-(trifluoromethyl)-1,2,4-oxadiazol-3-yl]phenyl]methyl]piperidin-2-one]
≥ 80%: inhibition of growth at 20 ppm [1] | pest or weed control at 200 ppm [2] | pest or weed control at 200 ppm [3] | pest or weed control at 200 ppm [4]

CC1CCC(=O)N(Cc2ccc(-c3noc(C(F)(F)F)n3)cc2)C1 (stereo not drawn) [Compound A-18, 5-methyl-1-[[4-[5-(trifluoromethyl)-1,2,4-oxadiazol-3-yl]phenyl]methyl]piperidin-2-one]
≥ 80%: inhibition of growth at 20 ppm [1] | pest or weed control at 200 ppm [2] | pest or weed control at 200 ppm [3] | pest or weed control at 200 ppm [4]

COC1CCCN(Cc2ccc(-c3noc(C(F)(F)F)n3)cc2)C1=O (stereo not drawn) [Compound A-19, 3-methoxy-1-[[4-[5-(trifluoromethyl)-1,2,4-oxadiazol-3-yl]phenyl]methyl]piperidin-2-one]
≥ 80%: inhibition of growth at 20 ppm [1] | pest or weed control at 200 ppm [2] | pest or weed control at 200 ppm [3] | pest or weed control at 200 ppm [4]

O=C1CC(C(F)(F)F)N1Cc1ccc(-c2noc(C(F)(F)F)n2)cc1 (stereo not drawn) [Compound A-20, 4-(trifluoromethyl)-1-[[4-[5-(trifluoromethyl)-1,2,4-oxadiazol-3-yl]phenyl]methyl]azetidin-2-one]
≥ 80%: inhibition of growth at 20 ppm [1] | pest or weed control at 200 ppm [2] | pest or weed control at 200 ppm [3] | pest or weed control at 200 ppm [4]

O=C1CCC(C(F)F)N1Cc1ccc(-c2noc(C(F)(F)F)n2)cc1 (stereo not drawn) [Compound A-21, 5-(difluoromethyl)-1-[[4-[5-(trifluoromethyl)-1,2,4-oxadiazol-3-yl]phenyl]methyl]pyrrolidin-2-one]
≥ 80%: inhibition of growth at 20 ppm [1] | pest or weed control at 200 ppm [2] | pest or weed control at 200 ppm [3] | pest or weed control at 200 ppm [4]

O=C1CCN1Cc1ccc(-c2noc(C(F)(F)F)n2)cc1 [Compound A-23, 1-[[4-[5-(trifluoromethyl)-1,2,4-oxadiazol-3-yl]phenyl]methyl]azetidin-2-one]
≥ 80%: inhibition of growth at 20 ppm [1] | pest or weed control at 200 ppm [2] | pest or weed control at 200 ppm [3] | pest or weed control at 200 ppm [4]

O=C1C2CCC(C2)N1Cc1ccc(-c2noc(C(F)(F)F)n2)cc1 (stereo not drawn) [Compound A-24, 3-[[4-[5-(trifluoromethyl)-1,2,4-oxadiazol-3-yl]phenyl]methyl]-3-azabicyclo[2.2.1]heptan-2-one]
≥ 80%: inhibition of growth at 20 ppm [1] | pest or weed control at 200 ppm [2] | pest or weed control at 200 ppm [3] | pest or weed control at 200 ppm [4]

O=C1CCCC2(CC2)N1Cc1ccc(-c2noc(C(F)(F)F)n2)cc1 [Compound A-25, 4-[[4-[5-(trifluoromethyl)-1,2,4-oxadiazol-3-yl]phenyl]methyl]-4-azaspiro[2.5]octan-5-one]
≥ 80%: inhibition of growth at 20 ppm [1] | pest or weed control at 200 ppm [2] | pest or weed control at 200 ppm [3] | pest or weed control at 200 ppm [4]

O=C1CCC2(CC2)N1Cc1ccc(-c2noc(C(F)(F)F)n2)cc1 [Compound A-27, 4-[[4-[5-(trifluoromethyl)-1,2,4-oxadiazol-3-yl]phenyl]methyl]-4-aza-spiro[2.4]heptan-5-one]
≥ 80%: inhibition of growth at 20 ppm [1] | pest or weed control at 200 ppm [2] | pest or weed control at 200 ppm [3] | pest or weed control at 200 ppm [4]

O=C1CCCCN1Cc1ccc(-c2noc(C(F)(F)F)n2)cc1F [Compound A-29, 1-[[2-fluoro-4-[5-(trifluoromethyl)-1,2,4-oxadiazol-3-yl]phenyl]methyl]piperidin-2-one]
≥ 80%: inhibition of growth at 20 ppm [1] | pest or weed control at 200 ppm [2] | pest or weed control at 200 ppm [3] | pest or weed control at 200 ppm [4]

CCOC(=O)N1CCN(Cc2ccc(-c3noc(C(F)(F)F)n3)cc2)C(=O)C1 [Compound A-32, ethyl 3-oxo-4-[[4-[5-(trifluoromethyl)-1,2,4-oxadiazol-3-yl]phenyl]methyl]piperazine-1-carboxylate]
≥ 80%: inhibition of growth at 20 ppm [1] | pest or weed control at 200 ppm [2] | pest or weed control at 200 ppm [3] | pest or weed control at 200 ppm [4]
